{"source": "paper PMC11944884", "about": "“Bioactive Secondary Metabolites of Two Chinese Edible Boletes, Phlebopus portentosus and Butyriboletus roseoflavus” (Molecules, 2025)", "key": {"[1]": {"tested_on": "influenza virus B/Victoria strain", "assay": "microbe, parasite or virus in culture", "format": "cell-based"}, "[2]": {"tested_on": "A/H3N2 and B/Victoria strains", "assay": "microbe, parasite or virus in culture", "format": "cell-based", "conditions": "Influenza A virus, range over compounds 22 and 26 and both strains"}, "[3]": {"tested_on": "influenza virus A/H3N2", "assay": "microbe, parasite or virus in culture", "format": "cell-based, influenza virus A (H3N2 strain)"}, "[4]": {"tested_on": "coxsackievirus B3", "assay": "Anti-coxsackievirus assay (CPE / MTT) in Vero cells", "format": "cell-based"}, "[5]": {"tested_on": "SH-SY5Y cells", "assay": "Neuroprotection against Aβ25−35-induced neurotoxicity (MTT)", "description": "The cells, obtained from the American Type Culture Collection (ATCC, Manassas, VA, USA) at high passages, maintained at 37 °C in a humidified atmosphere containing 5% CO2. Cells were seeded into 96-well plates at a density of 2 × 10^5 cells/mL in MEM/F12 medium supplemented with 10% (v/v) fetal bovine serum. Experiments were carried out after 24 h of seeding. Test compounds and positive control (epigallocatechin-3-gallate, EGCG; NAC) were made to 10^−2 M stock solutions with DMSO and then diluted to corresponding concentrations with cell culture medium. Cells were incubated with test compounds or EGCG (10 μM, Sigma, St. Louis, MO, USA, purity > 98%)/NAC for 2 h, followed by exposure to 80 μM H2O2 or 10 μM Aβ25−35 for another 24 h without medium replacement. After treatment, 10 μL of MTT (5 mg/mL) was added to each well and incubated at 37 °C for 3 h. The cells were finally lysed with 100% DMSO, and the absorbance of MTT formazan was measured at 490 nm using a microplate reader."}, "[6]": {"tested_on": "MCF-7/ADR", "assay": "Cytotoxicity CCK-8 assay, MCF-7/ADR", "format": "cell-based", "conditions": "Homo sapiens, NCI/ADR-RES"}, "[7]": {"tested_on": "Hela229", "assay": "Cytotoxicity CCK-8 assay, Hela229", "format": "cell-based", "conditions": "Homo sapiens, HeLa 229; Hela229"}, "[8]": {"tested_on": "SGC7901", "assay": "Cytotoxicity CCK-8 assay, SGC7901", "format": "cell-based", "conditions": "Homo sapiens, SGC-7901; SGC7901"}, "[9]": {"tested_on": "BEL7402", "assay": "Cytotoxicity CCK-8 assay, BEL7402", "format": "cell-based", "conditions": "Homo sapiens, Bel-7402; BEL7402"}, "[10]": {"tested_on": "PC-3", "assay": "Cytotoxicity CCK-8 assay, PC-3", "format": "cell-based", "conditions": "Homo sapiens, PC-3"}, "[11]": {"tested_on": "Hela229, SGC7901, PC-3, BEL7402, and MCF-7/ADR", "assay": "Cytotoxicity CCK-8 assay, small panel of human cancer cell lines (summary statements)", "format": "cell-based", "conditions": "over the panel Hela229, SGC7901, PC-3, BEL7402, MCF-7/ADR, read-out: IC50"}, "[12]": {"conditions": "Influenza A virus, H3N2, MDCK, read-out: CPE inhibition"}, "[13]": {"conditions": "Homo sapiens, SH-SY5Y, read-out: Cell viability (% of control group)"}}, "note": "Read-outs that look alike come from different tables or passages of the source."}
{"compound": "CC(C)[C@@H](C)/C=C/[C@@H](C)[C@H]1CC[C@H]2C3=C(CC[C@]12C)[C@@]1(C)CC[C@H](O)C[C@@]12O[C@H]2[C@H]3O", "note": "[Compound 26, (22E,24R)-5α,6α-epoxy-ergosta-8,22-dien-3β,7α-diol]", "values": [{"measurement": "EC50", "setting": "[1]; MDCK", "result": 3.6, "unit": "µM"}, {"measurement": "IC50", "setting": "[1]; MDCK", "result": 3.6, "unit": "µM"}, {"measurement": "inhibition at 0.78 µM", "setting": "[1]; MDCK, read-out: CPE inhibition", "result": 6.6, "unit": "%"}, {"measurement": "inhibition at 1.56 µM", "setting": "[1]; MDCK, read-out: CPE inhibition", "result": 15, "unit": "%"}, {"measurement": "inhibition at 3.13 µM", "setting": "[1]; MDCK, read-out: CPE inhibition", "result": 25, "unit": "%"}, {"measurement": "inhibition at 6.25 µM", "setting": "[1]; MDCK, read-out: CPE inhibition", "result": 75, "unit": "%"}, {"measurement": "inhibition at 12.5 µM", "setting": "[1]; MDCK, read-out: CPE inhibition", "result": 75, "unit": "%"}, {"measurement": "EC50", "setting": "[2]", "result": "3.6 to 9.6", "unit": "µM"}, {"measurement": "IC50", "setting": "[3]; Influenza A virus, H3N2, MDCK", "result": 4, "unit": "µM"}, {"measurement": "inhibition at 0.78 µM", "setting": "[3]; [12]", "result": 3.3, "unit": "%"}, {"measurement": "inhibition at 1.56 µM", "setting": "[3]; [12]", "result": 15, "unit": "%"}, {"measurement": "inhibition at 3.13 µM", "setting": "[3]; [12]", "result": 27.5, "unit": "%"}, {"measurement": "inhibition at 6.25 µM", "setting": "[3]; [12]", "result": 75, "unit": "%"}, {"measurement": "inhibition at 12.5 µM", "setting": "[3]; [12]", "result": 82.5, "unit": "%"}, {"measurement": "EC50", "setting": "[3]; MDCK", "result": 4, "unit": "µM"}]}
{"compound": "CC(C)[C@@H](C)/C=C/[C@@H](C)[C@H]1CC[C@H]2C3=C(CC[C@]12C)[C@@]1(C)CC[C@H](O)C[C@@]12O[C@H]2C3=O", "note": "[Compound 29, (22E,24R)-5α,6α-epoxy-3β-hydroxy-ergosta-8,22-dien-7-one]", "values": [{"measurement": "antiviral effect against coxsackievirus B3", "setting": "[4]", "result": "moderate antiviral effect"}, {"measurement": "increased cell survival", "setting": "[4]; 100 μg/mL, CVB-infected Vero cells", "result": 35.4, "unit": "%"}, {"measurement": "cytopathic morphology of Vero cells infected with coxsackievirus B3", "setting": "[4]; 100 μg/mL, microscope", "result": "reversed the cytopathic morphology"}]}
{"compound": "epigallocatechin-3-gallate [EGCG, reference compound]", "values": [{"measurement": "Cell viability (% of control group)", "setting": "[5]; 10 μM compound, 10 μM Aβ25-35, mean ± SEM", "result": 104.80, "unit": "%"}]}
{"compound": "NC(=O)c1ncn([C@@H]2O[C@H](CO)[C@@H](O)[C@H]2O)n1", "note": "[Ribavirin, reference compound]", "values": [{"measurement": "inhibition at 3.13 µM", "setting": "[1]; B/Victoria strain, 3.13 μM, MDCK cells, read-out: CPE inhibition", "result": 0, "unit": "%"}, {"measurement": "inhibition at 6.25 µM", "setting": "[1]; B/Victoria strain, 6.25 μM, MDCK cells, read-out: CPE inhibition", "result": 0, "unit": "%"}, {"measurement": "inhibition at 12.5 µM", "setting": "[1]; B/Victoria strain, 12.5 μM, MDCK cells, read-out: CPE inhibition", "result": 25, "unit": "%"}, {"measurement": "inhibition at 25 µM", "setting": "[1]; B/Victoria strain, 25 μM, MDCK cells, read-out: CPE inhibition", "result": 62.5, "unit": "%"}, {"measurement": "inhibition at 50 µM", "setting": "[1]; B/Victoria strain, 50 μM, MDCK cells, read-out: CPE inhibition", "result": 75, "unit": "%"}, {"measurement": "inhibition at 100 µM", "setting": "[1]; B/Victoria strain, 100 μM, MDCK cells, read-out: CPE inhibition", "result": 100, "unit": "%"}, {"measurement": "IC50", "setting": "[1]; B/Victoria strain, MDCK cells, Table S5, read-out: IC50", "result": 20.6, "unit": "µM"}, {"measurement": "EC50", "setting": "[1]; influenza virus B (Victoria strain), MDCK cells, read-out: EC50", "result": 20.6, "unit": "µM"}, {"measurement": "inhibition at 3.13 µM", "setting": "[3]; Influenza A virus, A/H3N2 strain, 3.13 μM, MDCK cells, read-out: CPE inhibition", "result": 3.3, "unit": "%"}, {"measurement": "inhibition at 6.25 µM", "setting": "[3]; Influenza A virus, A/H3N2 strain, 6.25 μM, MDCK cells, read-out: CPE inhibition", "result": 0, "unit": "%"}, {"measurement": "inhibition at 12.5 µM", "setting": "[3]; Influenza A virus, A/H3N2 strain, 12.5 μM, MDCK cells, read-out: CPE inhibition", "result": 10, "unit": "%"}, {"measurement": "inhibition at 25 µM", "setting": "[3]; Influenza A virus, A/H3N2 strain, 25 μM, MDCK cells, read-out: CPE inhibition", "result": 50.5, "unit": "%"}, {"measurement": "inhibition at 50 µM", "setting": "[3]; Influenza A virus, A/H3N2 strain, 50 μM, MDCK cells, read-out: CPE inhibition", "result": 75, "unit": "%"}, {"measurement": "inhibition at 100 µM", "setting": "[3]; Influenza A virus, A/H3N2 strain, 100 μM, MDCK cells, read-out: CPE inhibition", "result": 100, "unit": "%"}, {"measurement": "IC50", "setting": "[3]; Influenza A virus, A/H3N2 strain, MDCK cells, Table S5, read-out: IC50", "result": 28.3, "unit": "µM"}, {"measurement": "EC50", "setting": "[3]; influenza virus A (H3N2 strain), MDCK cells, read-out: EC50", "result": 28.3, "unit": "µM"}]}
{"compound": "COc1cccc2c1C(=O)c1c(O)c3c(c(O)c1C2=O)C[C@@](O)(C(=O)CO)C[C@@H]3O[C@H]1C[C@H](N)[C@H](O)[C@H](C)O1", "note": "[Doxorubicin, reference compound]", "values": [{"measurement": "IC50", "setting": "[6]", "result": 35.2, "unit": "µM"}, {"measurement": "inhibition at 6.25 µM", "setting": "[6]; 6.25 μM, 48 h, read-out: Cell proliferation inhibition (%)", "result": 46.5, "unit": "%"}, {"measurement": "inhibition at 12.5 µM", "setting": "[6]; 12.5 μM, 48 h, read-out: Cell proliferation inhibition (%)", "result": 44.2, "unit": "%"}, {"measurement": "inhibition at 50 µM", "setting": "[6]; 50 μM, 48 h, read-out: Cell proliferation inhibition (%)", "result": 52.7, "unit": "%"}, {"measurement": "inhibition at 100 µM", "setting": "[6]; 100 μM, 48 h, read-out: Cell proliferation inhibition (%)", "result": 52.8, "unit": "%"}, {"measurement": "IC50", "setting": "[7]", "result": 0.75, "unit": "µM"}, {"measurement": "IC50", "setting": "[8]", "result": 0.8, "unit": "µM"}, {"measurement": "IC50", "setting": "[9]", "result": 1.59, "unit": "µM"}, {"measurement": "IC50", "setting": "[10]", "result": 1.78, "unit": "µM"}, {"measurement": "IC50", "setting": "[11]", "result": "0.75 to 35.2", "unit": "µM"}]}
{"compound": "O=C1O/C(=C(/C(=O)O)c2ccc(O)cc2)C(O)=C1c1ccc(O)c(O)c1", "note": "[Compound 18, xerocomic acid]", "values": [{"measurement": "viability at 2.5 µM", "setting": "[5]; [13]", "result": "78.2 ± 1.53", "unit": "%"}, {"measurement": "viability at 5 µM", "setting": "[5]; [13]", "result": "77.6 ± 1.97", "unit": "%"}, {"measurement": "viability at 10 µM", "setting": "[5]; [13]", "result": "80.3 ± 1.39", "unit": "%"}, {"measurement": "viability at 20 µM", "setting": "[5]; [13]", "result": "81.2 ± 1.79", "unit": "%"}, {"measurement": "viability at 40 µM", "setting": "[5]; [13]", "result": 90.5, "unit": "%"}]}
